pEC50: −log10 of the molar value. Read-outs that look alike come from different tables or passages of the source.
Columns and labels:
hMC4-R [1] = test system: T1, hMC4-R; test: cAMP functional assay in HEK-293 cells expressing MC4-R (agonist, neutral antagonist/Schild); assay type: cell-based, human; conditions: for functional status (pAg, Ag, Antag, Inactive) / pEC50: MC4-R, Table 1; for pEC50: read-out: EC50; for intrinsic activity at MC4-R: NDP-α-MSH maximal stimulation = 1.0; for EC50: cAMP assay, read-out: EC50 (nM) at MC4-R
T1 construct: expressed in transfected cells; host or cells: HEK-293
Experimental: (§1) General method for EC50 determination in functional activity assay. Functional evaluation of compounds at melanocortin receptors was performed by measuring the accumulation of intracellular cAMP in HEK-293 cells expressing hMC3-R, hMC4-R or hMC5-R, and in B-16 mouse melanoma cells expressing MC1-R. Cells suspended in Earle's Balanced Salt Solution containing 10 mM HEPES (pH 7.5), 5 mM MgCl2, 1 mM glutamine, 0.1% albumin and 0.6 mM 3-isobutyl-1-methyl-xanthine, a phosphodiesterase inhibitor, were plated in 96 well plates at a density of 0.5×10^5 cells per well. Cells were incubated with the test compounds in the presence or absence of α-MSH for 1 hour at 37° C. cAMP levels in the cell lysates were measured using an EIA kit (Amersham). Data analysis and EC50 values were determined using nonlinear regression analysis with Prism Graph-Pad software.
(§2) Functional status. The agonist/antagonist status with respect to MC1-R, MC-3R, MC4-R and MC5-R of certain compounds of the invention was determined.
Assay for agonist. Evaluation of the molecules to elicit a functional response in HEK-293 cells expressing MC4-R was accomplished by measuring the accumulation of intracellular cAMP following treatment. Confluent HEK-293 cells expressing MC4-R were detached by enzyme free cell suspension buffer. Cells were suspended in Earle's Balanced Salt Solution containing 10 mM HEPES (pH 7.5), 1 mM MgCl2, 1 mM glutamine, 0.5% albumin and 0.3 mM 3-isobutyl-1-methyl-xanthine (IBMX), a phosphodiesterase inhibitor. The cells were plated in 96 well plates at a density of 0.5×10^5 cells per well and pre-incubated for 30 minutes. The cells were then challenged with the test compounds dissolved in DMSO at a concentration range of 0.05-5000 nM in a total assay volume of 200 μL for 1 hour at 37° C. The concentration of DMSO was always held at 1% in the assay mixture. NDP-α-MSH was used as the reference agonist. At the end of the incubation period the cells were disrupted by the addition of 50 μL of lysis buffer from a cAMP EIA kit (Amersham). Complete rupture of the cells was obtained by pipetting the cells multiple times. cAMP levels in the cell lysates were measured after appropriate dilution using the EIA kit (Amersham) method. Data analysis and EC50 values were determined by using nonlinear regression analysis with Prism Graph-Pad software. […] FIG. 1 illustrates typical results, showing the stimulation of cAMP using the compound of Example 11 in HEK-293/MC4-R cells with comparison to NDP-α-MSH.
Assay for Neutral Antagonist. Compounds with a high affinity for binding to MC4-R membranes but with less potency in terms of cAMP accumulation (EC50>1000 nM) and low response ratio (<0.1) were analyzed for their ability to antagonize the stimulatory effect of the agonist NDP-α-MSH. These studies were carried out in HEK-293 cells expressing MC4-R. Cells were incubated with the compounds in the presence of the agonist NDP-α-MSH and the extent of antagonism was measured by the decrease in intracellular cAMP concentrations. Screening the compounds for antagonist activity was performed at a single concentration of NDP-α-MSH (1.0 nM) over a compound concentration range of 0.5-5000 nM.
Experimental details were similar to the analysis for agonistic activity described above. Briefly, cells were pre-incubated for 30 minutes with the test compounds at concentrations between 0.5 nM and 5000 nM. The cells were then stimulated with NDP-α-MSH at a concentration of 1 nM for 1 hour. For Schild's analysis, the interactions were studied using at least 3 concentrations of the compounds, separated by a log unit, over a full range of the agonist (0.005-5000 nM). cAMP levels were measured in the cell lysates after appropriate dilution. Nonlinear regression analysis with Prism Graph-Pad software was used for Schild analysis and to obtain EC50 values. pA2 values were derived from the Schild plot of the data.

MC1-R [2] = target: T2, MC1-R; test: Competitive inhibition assay using [I125]-NDP-α-MSH, MC1-R membranes; assay type: binding, mouse; conditions: for Inhibition at 1 μM (NDP-α-MSH) MC1-R: 1 μM compound
T2 construct: other: 1 μM compound
Experimental: (§3) Competitive inhibition assay using [1125]-NDP-α-MSH. A competitive inhibition binding assay was conducted using membranes prepared from HEK-293 cells transfected to express hMC3-R, hMC4-R or hMC5-R, and from B-16 mouse melanoma cells (containing MC1-R) using 0.2 to 0.4 nM [I^125]-NDP-α-MSH (New England Nuclear) in 50 mM HEPES buffer containing 1 mM MgCl2, 2 mM CaCl2, and 5 mM KCl, at pH 7.2. In certain experiments, HEK-293 cells transfected to express hMC1-R were also employed. The assay tube also contained a chosen concentration of the test compound of this invention, typically a 1 μM concentration, for determining inhibition of the binding of [^1125]-NDP-α-MSH to its receptor. Non-specific binding was measured by inhibition of binding of [I^125]-NDP-α-MSH in the assay with the presence of 1 μM α-MSH.
(§4) The assay mixture was incubated for 90 minutes at room temperature, then filtered and the membranes washed three times with ice cold buffer. The filter was dried and counted in a gamma counter for remaining radioactivity bound to the membranes. 100% specific binding was defined as the difference in radioactivity (cpm) bound to cell membranes in the absence and presence of 1 μM α-MSH. The cpm obtained in presence of test compounds were normalized with respect to 100% specific binding to determine the percent inhibition of [125]-NDP-α-MSH binding. Each assay was conducted in triplicate and the actual mean values are described, with results less than 0% reported as 0%.

MC1-R [3] = test system: T3, MC1-R; test: cAMP functional assay, B-16 mouse melanoma cells expressing MC1-R; assay type: cell-based; conditions: cAMP assay at 1 μM
T3 construct: from B-16 mouse melanoma cells (containing MC1-R); endogenous in cells; host or cells: B-16 mouse melanoma cells
Experimental: as §1, §2

hMC3-R = target: T4, hMC3-R; test: Competitive inhibition assay using [I125]-NDP-α-MSH, hMC3-R membranes; assay type: binding, human; conditions: read-out: Ki (nM) (NDP-α-MSH) MC3-R
T4 construct: expressed in transfected cells; host or cells: HEK-293
Experimental: as §3, §4

hMC4-R [4] = test system: T1, hMC4-R; test: Competitive inhibition assay using [I125]-NDP-α-MSH, hMC4-R membranes; assay type: binding, human; conditions: for attenuation of binding of α-MSH and AgRP to MC4-R: both ligands (NDP-α-MSH and AgRP), summary
Experimental: as §3, §4

hMC4-R [5] = target: T1, hMC4-R; assay type: binding, human; conditions: for Inhibition at 1 μM (AgRP) MC4-R: 1 μM compound
Experimental: Competitive binding assay using [I^125]-AgRP (83-132). Competitive binding studies using [I^125]-AgRP (83-132) were carried out on membranes isolated from cells expressing hMC4-R. The assay was performed in 96 well GF/B Millipore multiscreen filtration plates (MAFB NOB10) pre-coated with 0.5% bovine serum albumin (Fraction V). The assay mixture contained 25 mM HEPES buffer (pH 7.5) with 100 mM NaCl, 2 mM CaCl2, 2 mM MgCl2, 0.3 mM 1,10-phenanthroline, 0.5% bovine serum albumin, cell membranes, radioligand [I^125]-AgRP (83-132) (NEN), and increasing concentrations of compounds in a total volume of 200 μL. Binding was measured at radioligand concentrations of 0.2 nM. After incubating for 1 hour at 37° C., the reaction mixture was filtered and washed with an assay buffer containing 500 mM NaCl. The dried discs were punched out from the plate and counted on a gamma counter. Care was taken to limit the specific binding of the ligand to an amount not exceeding 10% of the counts added to the reaction mixture. Data were analyzed using the Prism Graph-Pad curve fitting software.

hMC5-R [6] = test system: T5, hMC5-R; test: cAMP functional assay, HEK-293 cells expressing hMC5-R; assay type: cell-based, human; conditions: cAMP assay at 1 μM
T5 construct: expressed in transfected cells; host or cells: HEK-293
Experimental: as §1, §2

hMC5-R [7] = target: T5, hMC5-R; test: Competitive inhibition assay using [I125]-NDP-α-MSH, hMC5-R membranes; assay type: binding, human; conditions: read-out: Ki (nM) (NDP-α-MSH) MC5-R
Experimental: as §3, §4

[8] = MC4-R membranes, Table 1, read-out: Ki (nM) I125-NPD-α-MSH
[9] = read-out: Ki (nM) (NDP-α-MSH) MC4-R
[10] = MC4-R membranes, Table 1, read-out: Ki (nM) I125-AgRP

Compound	functional status (pAg, Ag, Antag, Inactive) (hMC4-R [1])	pEC50 (hMC4-R [1])	intrinsic activity at MC4-R (hMC4-R [1])	EC50 (hMC4-R [1])	Ki (MC1-R [2])	Inhibition at 1 μM (NDP-α-MSH) MC1-R (MC1-R [2])	functional status at MC1-R (MC1-R [3])	Ki (hMC3-R)	Inhibition at 1 μM (NDP-α-MSH) MC4-R (hMC4-R [4]; 1 μM compound)	Ki (hMC4-R [4]; [8])	attenuation of binding of α-MSH and AgRP to MC4-R (hMC4-R [4])	Ki (hMC4-R [4]; [9])	Ki (hMC4-R [5]; [10])	Ki (hMC4-R [5]; read-out: Ki (nM) (AgRP) MC4-R)	functional status at MC5-R (hMC5-R [6])	Ki (hMC5-R [7])	Inhibition at 1 μM (AgRP) MC4-R (hMC4-R [5])
N=C(N)NCCC[C@H]1C(=O)N(CCc2c[nH]c3ccccc23)CCN1C(=O)[C@H](N)Cc1ccc(Cl)cc1Cl [Example 2, N-(3-{(S)-1-[(R)-2-Amino-3-(2,4-dichloro-phenyl)-propionyl]-4-[2-(1H-indol-3-yl)-ethyl]-3-oxo-piperazin-2-yl}-propyl)-guanidine]	pAg (“pAg” means partial agonist)	6.22	0.3	604 nM	1410 nM	7%	partial agonist (intrinsic activity between 0.1 (10%) and 0.7 (70%) is classified as a partial agonist)	533 nM	96%	15 nM	attenuate the binding of both α-MSH and AgRP to MC4-R	15 nM	38 nM	38 nM	partial agonist (intrinsic activity between 0.1 (10%) and 0.7 (70%) is classified as a partial agonist)	1580 nM	–
N=C(N)NCCC[C@H]1CN(CCc2ccc3ccccc3c2)CCN1C(=O)[C@H](N)Cc1ccc(Cl)cc1Cl [Example 18, N-{3-[(S)-1%-[(R)-2-Amino-3-(2,4-dichloro-phenyl)-propionyl]-4-(2-naphthalen-2-ylethyl)-piperazin-2-yl]-propyl}-guanidine]	pAg (“pAg” means partial agonist)	7.66	0.4	22 nM	1200 nM	6%	–	97 nM	–	3 nM	attenuate the binding of both α-MSH and AgRP to MC4-R	3 nM	1 nM	1 nM	–	259 nM	100%
NH2—(CH2)6—C(═O)-Ser(Bzl)-D-Phe(4-Cl)-Arg-Trp-Asp-Phe-NH2 [Example 15]	pAg (“pAg” means partial agonist)	6.55	0.5	238 nM	242 nM	38%	–	76 nM	–	5 nM	attenuate the binding of both α-MSH and AgRP to MC4-R	5 nM	0.6 nM	0.6 nM	–	405 nM	95%
NH2—(CH2)6—C(═O)-Ser(Bzl)-D-Phe(4-Cl)-Arg-Trp-NH2 [Example 1]	pAg (“pAg” means partial agonist)	6.53	0.3	296 nM	351 nM	33%	–	27 nM	–	–	attenuate the binding of both α-MSH and AgRP to MC4-R	1 nM	–	8 nM	–	208 nM	–

From patent US20090076029A1 (Palatin Technologies, Inc., priority 2007, published 2009)
